Experiments:
L929 = assay: Antiproliferative activity against mouse L929 cells after 72 hrs by MTT assay; settings: L929, 72 h
MCF7 = assay: Antiproliferative activity against human MCF7 cells after 72 hrs by MTT assay; assay type: functional, cell-based; settings: MCF7, 72 h
A549 = assay: cells; settings: Homo sapiens, A549, 72 h
Description: Antiproliferative activity against human A549 cells after 72 hrs by MTT assay

HeLa = assay: Antiproliferative activity against human HeLa cells after 72 hrs by MTT assay; assay type: functional, cell-based

SMILES	IC50 (MCF7) [µM]	IC50 (A549) [µM]	IC50 (HeLa) [µM]	IC50 (L929) [µM]
Cc1nc2c(n1CCN1CCOCC1)C(=O)c1ccccc1C2=O	> 200	105	> 200	118
CC(C)Cc1nc2c(n1CCN1CCOCC1)C(=O)c1ccccc1C2=O	> 200	25.9	180	157
CC(C)(C)c1nc2c(n1CCN1CCOCC1)C(=O)c1ccccc1C2=O	150	21.8	88.2	86
O=C1c2ccccc2C(=O)c2c1nc(C1CCCCC1)n2CCN1CCOCC1	> 200	76.4	> 200	80.3
O=C1c2ccccc2C(=O)c2c1nc(-c1cccnc1)n2CCN1CCOCC1	167	37.8	109	44.6
Cc1ccc(CCc2nc3c(n2CCN2CCOCC2)C(=O)c2ccccc2C3=O)o1	166	72.8	88.2	96.2
Cc1cc2ncn(CCN3CCOCC3)c2cc1C	181	112	> 200	187
C[N+]1(CCn2c(C(F)(F)F)nc3c2C(=O)c2ccccc2C3=O)CCOCC1	139	93.5	116	> 200
CCc1nc2c(n1CCN1CCOCC1)C(=O)c1ccccc1C2=O	179	84.9	144	106
C[N+]1(CCn2c(-c3ccccn3)nc3c2C(=O)c2ccccc2C3=O)CCOCC1	141	141	106	106
C[N+]1(CCn2c(-c3ccsc3)nc3c2C(=O)c2ccccc2C3=O)CCOCC1	133	115	160	133
c1c2ncn(CCN3CCOCC3)c2cc2ncn(CCN3CCOCC3)c12	> 200	> 200	> 200	> 200
O=C1c2ccccc2C(=O)c2c1nc(-c1cccs1)n2CCN1CCOCC1	137	91.9	173	177
O=C1c2ccccc2C(=O)c2c1nc(-c1ccco1)n2CCN1CCOCC1	169	147	191	175
O=C1c2ccccc2C(=O)c2c1nc(-c1cccc(C(F)(F)F)c1)n2CCN1CCOCC1	134	33.3	185	72.5
C[N+]1(CCn2c(-c3ccccc3)nc3c2C(=O)c2ccccc2C3=O)CCOCC1	184	> 200	> 200	> 200
O=C1c2ccccc2C(=O)c2c1nc(-c1ccncc1)n2CCN1CCOCC1	140	120	153	116
O=C1c2ccccc2C(=O)c2c1nc(-c1ccc(Cl)c(C(F)(F)F)c1)n2CCN1CCOCC1	140	45.2	119	111
COc1ccc(-c2nc3c(n2CC[N+]2(C)CCOCC2)C(=O)c2ccccc2C3=O)cc1Cl	> 200	174	97.5	> 200
O=C1C(Cl)=C(NCCN2CCOCC2)C(=O)c2nccnc21	> 200	158	> 200	149
C[N+]1(CCn2c(-c3cccc(F)c3)nc3c2C(=O)c2ccccc2C3=O)CCOCC1	166	166	166	> 200
CCC(C)c1nc2c(n1CCN1CCOCC1)C(=O)c1ccccc1C2=O (configuration not stated)	123	175	> 200	100

The next lines start with results.

IC50 (MCF7) [µM]	IC50 (A549) [µM]	IC50 (HeLa) [µM]	SMILES	IC50 (L929) [µM]
116	23.6	121	Cc1ccccc1-c1nc2c(n1CCN1CCOCC1)C(=O)c1ccccc1C2=O	80.2
58.3	76.9	82.1	O=C1c2ccccc2C(=O)c2c1nc(/C=C/c1ccccc1)n2CCN1CCOCC1	120
10.6	4.3	8.3	COc1ccc(-c2nc3c(n2CCN2CCOCC2)C(=O)c2ccccc2C3=O)cc1Cl	67.3
95.9	37.4	95.1	CCCc1nc2c(n1CCN1CCOCC1)C(=O)c1ccccc1C2=O	80.3
48.4	31.2	52.5	O=C1c2ccccc2C(=O)c2c1nc(-c1ccc(F)c(Cl)c1)n2CCN1CCOCC1	44.3
39.1	63.4	79.2	O=C1c2ccccc2C(=O)c2c1nc(-c1ccc(-c3nc4c(n3CCN3CCOCC3)C(=O)c3ccccc3C4=O)cc1)n2CCN1CCOCC1	121
30.1	16.6	19.2	O=C1c2ccccc2C(=O)c2c1nc(-c1cccc3ccccc13)n2CCN1CCOCC1	41
105	73	99.3	O=C1c2ccccc2C(=O)c2c1nc(C1CCC1)n2CCN1CCOCC1	84.9
64.7	36	61.2	O=C1c2ccccc2C(=O)c2c1nc(C1CC1)n2CCN1CCOCC1	40
110	> 200	122	CC(C)c1ccc(CC(C)c2nc3c(n2CCN2CCOCC2)C(=O)c2ccccc2C3=O)cc1 (configuration not stated)	> 200
113	107	166	CCCCc1nc2c(n1CCN1CCOCC1)C(=O)c1ccccc1C2=O	> 200
37.7	32.2	105	O=C1c2ccccc2C(=O)c2c1nc(-c1ccccn1)n2CCN1CCOCC1	118
53.5	78.3	79.1	O=C1c2ccccc2C(=O)c2c1nc(-c1cnccn1)n2CCN1CCOCC1	49.6
86.9	84.5	112	COc1ccc(-c2nc3c(n2CCN2CCOCC2)C(=O)c2ccccc2C3=O)cc1	101
108	57.3	95.9	CCC(CC)c1nc2c(n1CCN1CCOCC1)C(=O)c1ccccc1C2=O	79.4
123	32.5	125	CC(C)c1nc2c(n1CCN1CCOCC1)C(=O)c1ccccc1C2=O	79.8
70.1	24.5	61.4	O=C1c2ccccc2C(=O)c2c1nc(-c1ccccc1)n2CCN1CCOCC1	40.6
115	20.9	136	O=C1c2ccccc2C(=O)c2c1nc(-c1ccsc1)n2CCN1CCOCC1	122
106	87	133	O=C1c2ccccc2C(=O)c2c1nc(-c1cccc(F)c1)n2CCN1CCOCC1	131
17.9	15.9	15.1	O=C1c2ccccc2C(=O)c2c1nc(C(F)(F)F)n2CCN1CCOCC1	16.2
106	70	99.8	CC(C)c1ccc(-c2nc3c(n2CCN2CCOCC2)C(=O)c2ccccc2C3=O)cc1	71.9

Reference: ChEMBL document CHEMBL4118258, “2-Substituted-1-(2-morpholinoethyl)-1H-naphtho[2,3-d]imidazole-4,9-diones: Design, synthesis and antiproliferative activity” (Bioorg Med Chem Lett, 2018)
